Earlier results, collected in the PKSmart pharmacokinetics tables (Seal et al. 2025).
Where a SMILES comes first, the peptide text is derived from it. Bridges are numbered along the chain shown (N, C = ends). [ ]: non-standard residue; d: D form. Mpa = O=C(O)CCS

Experiment: Lombardo, Berellini, Obach 2018, Drug Metab Dispos 46:1466, doi 10.1124/dmd.118.082966
Conditions: human; for MRT / Vd / clearance / half-life: in vivo, iv; for fraction unbound: plasma

| Structure (SMILES) | MRT [h] | Vd [L/kg] | clearance [mL/min/kg] | half-life [h] | fraction unbound |
| --- | --- | --- | --- | --- | --- |
| N=C(N)NCCCC1NC(=O)CCSSCC(C(N)=O)NC(=O)C2CCCN2C(=O)C(Cc2c[nH]c3ccccc23)NC(=O)C(CC(=O)O)NC(=O)CNC1=O (configuration not stated) ([Mpa]RGDWPC-NH2; disulfide 1-7; configuration not given here) | 2.45 | 0.42 | 2.88 | 2.12 |  |
| C[C@@H]([C@@H](O)c1ccc(O)cc1)N1CCC(O)(c2ccccc2)CC1 | 2.6 | 4.4 | 27 | 3.7 | 0.63 |
| CCOC(=O)c1ccc(C#Cc2ccc3c(c2)C(C)(C)CCS3)nc1 | 1.56 | 3.55 | 37.2 | 6.22 |  |
| O=P(O)(O)OC(Cn1cncn1)(Cn1cncn1)c1ccc(F)cc1F | 2 | 0.15 | 1.3 | 2.1 | 0.042 |
| CN1CCN(CCCN2c3ccccc3Sc3ccc(Cl)cc32)CC1 | 23 | 22 | 16 | 9 |  |
| CS(=O)(=O)OCCN(CCBr)c1c(C(=O)NCCOP(=O)(O)O)cc([N+](=O)[O-])cc1[N+](=O)[O-] | 0.32 | 0.86 | 44.8 | 0.1 |  |
| CC(C=Cc1c(C)c(O)c2ccccc2c1O)=CCC[C@H](C)CCC[C@H](C)CCCC(C)C | 3.3 | 0.32 | 1.6 | 7.3 |  |
| CC(=O)NC(CSSCC(N)C(=O)O)C(=O)NC(C)C(=O)NC(CCCNC(=N)N)C(=O)NC(CCCNC(=N)N)C(=O)NC(CCCNC(=N)N)C(=O)NC(C)C(=O)NC(CCCNC(=N)N)C(N)=O (configuration not stated) | 19.9 | 1.98 | 1.67 |  |  |
| COc1ccc([C@@H]2CNC(=O)C2)cc1OC1CCCC1 | 1.77 | 0.67 | 6.3 | 7 | 0.11 |
| CC(c1ccccn1)c1c(CCN(C)C)sc2ccccc12 (configuration not stated) | 6.8 | 1.83 | 5.31 | 9.1 |  |
| CCCNC(C)C(=O)Nc1c(C)csc1C(=O)OC (configuration not stated) | 1.04 | 7.7 | 127 | 0.98 | 0.46 |
| O=C(Cn1cnnn1)NC1C(=O)N2C(C(=O)O)=C(CSc3nncs3)CS[C@H]12 (some centres not stated) |  |  | 5.37 | 0.64 |  |
| NS(=O)(=O)c1cc2c(cc1C(F)(F)F)NCNS2(=O)=O | 3.8 | 2.2 | 9.7 | 5.2 |  |
| CCN(CC)CCN1C(=O)c2c(c3c4cccc(Cl)c4n([C@@H]4O[C@H](CO)[C@@H](OC)[C@H](O)[C@H]4O)c3c3[nH]c4c(Cl)cccc4c23)C1=O | 45.4 | 8.9 | 3.13 | 48.9 |  |
| CNS(=O)(=O)CCc1ccc2[nH]cc(C3CCN(C)CC3)c2c1 | 6.1 | 2.4 | 6.6 | 6.6 |  |
| CCCCC(=O)N(Cc1ccc(-c2ccccc2-c2nnn[nH]2)cc1)C(C(=O)O)C(C)C (configuration not stated) | 7.5 | 0.22 | 0.49 | 9.5 | 0.04 |
| CC[C@@H](C)N(C)C(=O)c1cc2ccccc2c(-c2ccccc2Cl)n1 | 5.4 | 1.7 | 5.9 | 3.7 |  |
| C[N+](C)(C)C[C@H](O)CC(=O)[O-] | 4.2 | 0.4 | 1.6 | 5 | 1 |
| C[C@H](CCc1ccc(O)cc1)NCCc1ccc(O)c(O)c1 |  |  | 115 |  |  |
| Oc1c(C2=CC[C@@H](c3ccc(Cl)cc3)CC2)c(O)c2ccccc2c1O | 67 | 0.6 | 0.15 | 63 | 0.001 |
| CC(C)NC[C@@H](O)COc1cccc2c1N(C(=O)c1cccnc1)CCC2 | 3.1 | 0.67 | 3.6 | 12.4 |  |
| O=C(O)CCCC[C@H]1CCSS1 | 0.13 | 0.11 | 13.4 | 0.21 |  |
| O=C1NC(=O)C(c2cn3ccccc3n2)=C1C1=CN2CCN(C(=O)N3CCCCC3)C[C@@H]3C=C(F)C=C1[C@H]32 | 1.9 | 1.2 | 10.3 | 2.7 | 0.02 |
| Cc1ccc(Nc2nccc(N(C)c3ccc4c(C)n(C)nc4c3)n2)cc1S(N)(=O)=O | 44.4 | 0.16 | 0.06 |  | 0.01 |
| COC(=O)CC[C@@H]1N=C(c2ccccn2)c2cc(Br)ccc2-n2c(C)cnc21 | 0.5 | 0.44 | 15 | 0.75 |  |
| CN(C)c1ccc(O)c2c1C[C@H]1C[C@H]3[C@H](N(C)C)C(O)=C(C(N)=O)C(=O)[C@@]3(O)C(O)=C1C2=O |  |  |  |  | 0.005 |
| CN[C@@H]1[C@@H](O)[C@@H](O[C@@H]2[C@@H](O)[C@H](O[C@H]3OC(CN)=CC[C@H]3N)[C@@H](N)C[C@H]2N)OC[C@]1(C)O | 3.2 | 0.19 | 1 | 2.4 | 0.15 |
| NC(=O)c1cc[n+](CC2=C(C(=O)O)N3C(=O)C(NC(=O)C(c4ccccc4)S(=O)(=O)[O-])[C@H]3SC2)cc1 (some centres not stated) | 2.47 | 0.29 | 1.96 | 1.64 |  |
